Test results taken from US20150374673A1, “Combination Therapy for the Treatment of Nosocomial Pneumonia” (priority 2013, published 2015).
Where two headings read alike, the source gives them in different places.

Assays:
Assay type in all cases: cell-based
E. faecalis [1] = experiment: Initial MIC, microbroth dilution (CLSI), avibactam 4 mg/L
Excerpt: (§1) All MIC determinations including those performed in the checkerboard assay were done in cation-adjusted Mueller-Hinton broth (purchased from Becton Dickinson, Oxford UK). […]

E. cloacae [2] = experiment: as above; conditions: Enterobacter cloacae
Excerpt: as §1

E. coli [3] = experiment: as above; conditions: Escherichia coli, read-out: MIC
Excerpt: as §1

S. aureus [4] = experiment: as above; conditions: Staphylococcus aureus, read-out: MIC
Excerpt: as §1

E. faecalis [5] = experiment: Checkerboard assay, mean FICI
Procedure: (§2) All MIC determinations including those performed in the checkerboard assay were done in cation-adjusted Mueller-Hinton broth (purchased from Becton Dickinson, Oxford UK).
(§3) Initial MIC data were determined by microbroth dilution methods as recommended by CLSI (2012b). Checkerboards were made in accordance with the method given by Pillai et. al., ? Antimicrobial Combinations in Antibiotics, LABORATORY MEDICINE (Lorian Ed., 3rd Ed. (2003)) p. 365-440 as per standard microbroth dilution tests but with agents in combination. […] A final avibactam concentration of 4 mg/L was used throughout the study. Antibacterial agents were combined into microtitre plates using the Evolution III liquid handling system.
(§4) Checkerboard plates were inoculated and incubated in accordance with CLSI guidelines (2012b) at 35±2° C. in ambient air for 16-20 h. MICs were recorded the following day as the lowest concentration or combination of concentrations required to inhibit all visible growth. From the MIC data, FICIs were calculated for each checkerboard according to the method of Meletiadis et. al., Defining Fractional Inhibitory Concentration Index Cutoffs for Additive Interactions Based on Self-Drug Additive Combinations, Monte Carlo Simulation Analysis and in vitro-in vivo Correlation Data for Antifungal Drug Combinations Against Aspergillus fumigatus, AAC 54:602-09 (2010).
(§5) FICI=FICA+FICB=(CA/MICA)+(CB/MICB)
(§6) As each checkerboard gives a number of FICI values, an arithmetic mean is calculated from all values to give the mean FICI for two agents combined against one isolate. Mean FICIs were interpreted by the following criteria given by Odds (2003) which are now the accepted criteria by most journals: […]

E. cloacae [6] = experiment: Checkerboard assay, mean FICI
Procedure: as §2, §3, §4, §5, §6

E. coli [7] = experiment: Checkerboard assay, mean FICI
Procedure: as §2, §3, §4, §5, §6

S. aureus [8] = experiment: Checkerboard assay, mean FICI
Procedure: as §2, §3, §4, §5, §6

P. aeruginosa = experiment: Checkerboard assay, mean FICI
Procedure: as §2, §3, §4, §5, §6

K. pneumoniae = experiment: Checkerboard assay, mean FICI
Procedure: as §2, §3, §4, §5, §6

## CC(C)(O/N=C(\C(=O)N[C@@H]1C(=O)N2C(C(=O)[O-])=C(C[n+]3ccccc3)CS[C@H]12)c1csc(N)n1)C(=O)O [ceftazidime, (6R,7R)-7-[[(2Z)-2-(2-amino-1,3-thiazol-4-yl)-2-(1-hydroxy-2-methyl-1-oxopropan-2-yl)oxyiminoacetyl]amino]-8-oxo-3-(pyridin-1-ium-1-ylmethyl)-5-thia-1-azabicyclo[4.2.0]oct-2-ene-2-carboxylate pentahydrate]
E. faecalis [1]; Enterococcus faecalis
  MIC: 256 µg/mL
E. faecalis [1]; Enterococcus faecalis, isolate 25 E. faecalis Basal MICs, read-out: MIC
  MIC: > 512 µg/mL
E. faecalis [1]; isolate 27 E. faecalis Basal MICs
  MIC: 256 µg/mL
E. cloacae [2]; isolate 1 E. cloacae Basal MICs, read-out: MIC
  MIC: 0.12 µg/mL
E. cloacae [2]; isolate 2 E. cloacae Derepressed AmpC
  MIC: 256 µg/mL
E. cloacae [2]; isolate 3 E. cloacae Derepressed AmpC
  MIC: 128 µg/mL
E. coli [3]; isolate 5 E. coli CTX-M-15
  MIC: 64 µg/mL
E. coli [3]; isolate 6 E. coli TEM-4
  MIC: 8 µg/mL
E. coli [3]; isolate 7 E. coli SHV-12
  MIC: 16 µg/mL
E. coli [3]; isolate 8 E. coli SHV-2
  MIC: 1 µg/mL
S. aureus [4]; isolate 22 S. aureus Basal MICs
  MIC: 8 µg/mL
S. aureus [4]; isolate 23 S. aureus Basal MICs, Penicillinase+
  MIC: 16 µg/mL
S. aureus [4]; isolate 24 S. aureus Basal MICs, Penicillinase+
  MIC: 8 µg/mL
E. faecalis [5]; with Lev, isolate 25 E. faecalis Basal MICs
  Mean FICI: 1.15
E. faecalis [5]; with Lev, isolate 26 E. faecalis Basal MICs
  Mean FICI: 1.20
E. faecalis [5]; with Lev, isolate 27 E. faecalis Basal MICs
  Mean FICI: 0.78
E. faecalis [5]; with Lzd, isolate 25 E. faecalis Basal MICs
  Mean FICI: 1.72
E. faecalis [5]; with Lzd, isolate 26 E. faecalis Basal MICs
  Mean FICI: 0.99
E. faecalis [5]; with Lzd, isolate 27 E. faecalis Basal MICs
  Mean FICI: 1.64
E. faecalis [5]; with Tig, isolate 25 E. faecalis Basal MICs
  Mean FICI: 1.19
E. faecalis [5]; with Tig, isolate 26 E. faecalis Basal MICs
  Mean FICI: 0.73
E. faecalis [5]; with Tig, isolate 27 E. faecalis Basal MICs
  Mean FICI: 1.16
E. faecalis [5]; with Tob, isolate 25 E. faecalis Basal MICs
  Mean FICI: 0.84
E. faecalis [5]; with Tob, isolate 26 E. faecalis Basal MICs
  Mean FICI: 0.74
E. faecalis [5]; with Tob, isolate 27 E. faecalis Basal MICs
  Mean FICI: 0.99
E. faecalis [5]; with Van, isolate 25 E. faecalis Basal MICs
  Mean FICI: 1.63
E. faecalis [5]; with Van, isolate 26 E. faecalis Basal MICs
  Mean FICI: 1.18
E. faecalis [5]; with Van, isolate 27 E. faecalis Basal MICs
  Mean FICI: 1.38
E. cloacae [6]; with Col, isolate 2 E. cloacae Derepressed AmpC
  Mean FICI: 1.54
E. cloacae [6]; with Col, isolate 3 E. cloacae Derepressed AmpC
  Mean FICI: 1.12
E. cloacae [6]; with Lev, isolate 2 E. cloacae Derepressed AmpC
  Mean FICI: 0.99
E. cloacae [6]; with Lev, isolate 3 E. cloacae Derepressed AmpC
  Mean FICI: 0.81
E. cloacae [6]; with Tig, isolate 2 E. cloacae Derepressed AmpC
  Mean FICI: 0.93
E. cloacae [6]; with Tig, isolate 3 E. cloacae Derepressed AmpC
  Mean FICI: 1.05
E. cloacae [6]; with Tob, isolate 3 E. cloacae Derepressed AmpC
  Mean FICI: 0.73
E. coli [7]; with Col, isolate 4 E. coli Basal MICs
  Mean FICI: 1.35
E. coli [7]; with Col, isolate 5 E. coli CTX-M-15
  Mean FICI: 1.23
E. coli [7]; with Col, isolate 6 E. coli TEM-4
  Mean FICI: 1.26
E. coli [7]; with Col, isolate 7 E. coli SHV-12
  Mean FICI: 1.66
E. coli [7]; with Col, isolate 8 E. coli SHV-2
  Mean FICI: 1.54
E. coli [7]; with Lev, isolate 5 E. coli CTX-M-15
  Mean FICI: 1.05
E. coli [7]; with Lev, isolate 6 E. coli TEM-4
  Mean FICI: 1.05
E. coli [7]; with Lev, isolate 7 E. coli SHV-12
  Mean FICI: 1.18
E. coli [7]; with Lev, isolate 8 E. coli SHV-2
  Mean FICI: 1.11
E. coli [7]; with Tig, isolate 4 E. coli Basal MICs
  Mean FICI: 1.41
E. coli [7]; with Tig, isolate 5 E. coli CTX-M-15
  Mean FICI: 1.12
E. coli [7]; with Tig, isolate 6 E. coli TEM-4
  Mean FICI: 1.27
E. coli [7]; with Tig, isolate 7 E. coli SHV-12
  Mean FICI: 0.95
E. coli [7]; with Tig, isolate 8 E. coli SHV-2
  Mean FICI: 1.10
E. coli [7]; with Tob, isolate 5 E. coli CTX-M-15
  Mean FICI: 1.05
E. coli [7]; with Tob, isolate 6 E. coli TEM-4
  Mean FICI: 0.99
E. coli [7]; with Tob, isolate 7 E. coli SHV-12
  Mean FICI: 1.19
E. coli [7]; with Tob, isolate 8 E. coli SHV-2
  Mean FICI: 0.91
S. aureus [8]; with Lev, isolate 22 S. aureus Basal MICs
  Mean FICI: 0.98
S. aureus [8]; with Lev, isolate 23 S. aureus Basal MICs, Penicillinase+
  Mean FICI: 1.46
S. aureus [8]; with Lev, isolate 24 S. aureus Basal MICs, Penicillinase +
  Mean FICI: 1.21
S. aureus [8]; with Lzd, isolate 22 S. aureus Basal MICs
  Mean FICI: 1.43
S. aureus [8]; with Lzd, isolate 23 S. aureus Basal MICs, Penicillinase+
  Mean FICI: 1.10
S. aureus [8]; with Lzd, isolate 24 S. aureus Basal MICs, Penicillinase +
  Mean FICI: 1.32
S. aureus [8]; with Tig, isolate 22 S. aureus Basal MICs
  Mean FICI: 1.13
S. aureus [8]; with Tig, isolate 23 S. aureus Basal MICs, Penicillinase+
  Mean FICI: 1.27
S. aureus [8]; with Tig, isolate 24 S. aureus Basal MICs, Penicillinase +
  Mean FICI: 1.11
S. aureus [8]; with Tob, isolate 22 S. aureus Basal MICs
  Mean FICI: 1.60
S. aureus [8]; with Tob, isolate 23 S. aureus Basal MICs, Penicillinase+
  Mean FICI: 0.86
S. aureus [8]; with Tob, isolate 24 S. aureus Basal MICs, Penicillinase +
  Mean FICI: 0.84
S. aureus [8]; with Van, isolate 22 S. aureus Basal MICs
  Mean FICI: 1.23
S. aureus [8]; with Van, isolate 23 S. aureus Basal MICs, Penicillinase+
  Mean FICI: 0.99
S. aureus [8]; with Van, isolate 24 S. aureus Basal MICs, Penicillinase +
  Mean FICI: 1.24
P. aeruginosa; with Col, isolate 16 P. aeruginosa Basal MICs
  Mean FICI: 1.24
P. aeruginosa; with Col, isolate 17 P. aeruginosa Derepressed AmpC
  Mean FICI: 1.21
P. aeruginosa; with Col, isolate 18 P. aeruginosa Derepressed AmpC
  Mean FICI: 1.23
P. aeruginosa; with Col, isolate 19 P. aeruginosa PER
  Mean FICI: 1.43
P. aeruginosa; with Col, isolate 20 P. aeruginosa KPC-2
  Mean FICI: 1.21
P. aeruginosa; with Col, isolate 21 P. aeruginosa KPC-2
  Mean FICI: 1.34
P. aeruginosa; with Lev, isolate 16 P. aeruginosa Basal MICs
  Mean FICI: 1.19
P. aeruginosa; with Lev, isolate 17 P. aeruginosa Derepressed AmpC
  Mean FICI: 1.10
P. aeruginosa; with Lev, isolate 18 P. aeruginosa Derepressed AmpC
  Mean FICI: 1.21
P. aeruginosa; with Lev, isolate 19 P. aeruginosa PER
  Mean FICI: 0.99
P. aeruginosa; with Lev, isolate 20 P. aeruginosa KPC-2
  Mean FICI: 1.13
P. aeruginosa; with Lev, isolate 21 P. aeruginosa KPC-2
  Mean FICI: 1.12
P. aeruginosa; with Tig, isolate 16 P. aeruginosa Basal MICs
  Mean FICI: 1.05
P. aeruginosa; with Tig, isolate 17 P. aeruginosa Derepressed AmpC
  Mean FICI: 1.23
P. aeruginosa; with Tig, isolate 18 P. aeruginosa Derepressed AmpC
  Mean FICI: 1.15
P. aeruginosa; with Tig, isolate 19 P. aeruginosa PER
  Mean FICI: 1.13
P. aeruginosa; with Tig, isolate 20 P. aeruginosa KPC-2
  Mean FICI: 1.40
P. aeruginosa; with Tig, isolate 21 P. aeruginosa KPC-2
  Mean FICI: 1.23
P. aeruginosa; with Tob, isolate 16 P. aeruginosa Basal MICs
  Mean FICI: 1.11
P. aeruginosa; with Tob, isolate 17 P. aeruginosa Derepressed AmpC
  Mean FICI: 1.05
P. aeruginosa; with Tob, isolate 18 P. aeruginosa Derepressed AmpC
  Mean FICI: 0.89
P. aeruginosa; with Tob, isolate 19 P. aeruginosa PER
  Mean FICI: 0.70
P. aeruginosa; with Tob, isolate 20 P. aeruginosa KPC-2
  Mean FICI: 0.97
P. aeruginosa; with Tob, isolate 21 P. aeruginosa KPC-2
  Mean FICI: 0.97
K. pneumoniae; with Col, isolate 10 K. pneumoniae TEM-4
  Mean FICI: 0.85
K. pneumoniae; with Col, isolate 11 K. pneumoniae CTX-M-15
  Mean FICI: 1.54
K. pneumoniae; with Col, isolate 12 K. pneumoniae SHV-12
  Mean FICI: 1.40
K. pneumoniae; with Col, isolate 14 K. pneumoniae KPC-3
  Mean FICI: 1.05
K. pneumoniae; with Lev, isolate 9 K. pneumoniae Basal MICs
  Mean FICI: 0.96
K. pneumoniae; with Lev, isolate 10 K. pneumoniae TEM-4
  Mean FICI: 1.13
K. pneumoniae; with Tig, isolate 11 K. pneumoniae CTX-M-15
  Mean FICI: 0.94
K. pneumoniae; with Tig, isolate 12 K. pneumoniae SHV-12
  Mean FICI: 0.97
K. pneumoniae; with Tig, isolate 13 K. pneumoniae KPC-3
  Mean FICI: 1.99
K. pneumoniae; with Tig, isolate 14 K. pneumoniae KPC-3
  Mean FICI: 0.74
K. pneumoniae; with Tob, isolate 9 K. pneumoniae Basal MICs
  Mean FICI: 1.55
K. pneumoniae; with Tob, isolate 10 K. pneumoniae TEM-4
  Mean FICI: 0.64
K. pneumoniae; with Tob, isolate 11 K. pneumoniae CTX-M-15
  Mean FICI: 1.05
K. pneumoniae; with Tob, isolate 12 K. pneumoniae SHV-12
  Mean FICI: 1.04
K. pneumoniae; with Tob, isolate 13 K. pneumoniae KPC-3
  Mean FICI: 1.12
K. pneumoniae; with Tob, isolate 14 K. pneumoniae KPC-3
  Mean FICI: 0.91
K. pneumoniae; with Tob, isolate 15 K. pneumoniae KPC-2
  Mean FICI: 1.05
